Values quoted from earlier work as cited in patent US20110274624A1, “CONTRAST AGENTS IN POROUS PARTICLES” (WILLIAM MARSH RICE UNIVERSITY, priority 2010, published 2011).
Like-named read-outs stand apart in the source and are kept apart here.

| SMILES | r1 per Gd^3+ ion (1.41T) | longitudinal relaxivity r1 (field not stated) [mM⁻¹ s⁻¹] | r1 per Gd^3+ ion (1.5T) [mM⁻¹ s⁻¹] |
| --- | --- | --- | --- |
| O=C([O-])CN(CCN(CC(=O)[O-])CC(=O)[O-])CCN(CC(=O)[O-])C(COCc1ccccc1)C(=O)[O-].[Gd+3] (stereo not shown) [Gd-BOPTA] | 4.1 (1. 41T) mM^−1s^−1 |  |  |
| O=C([O-])CN1CCN(CC(=O)[O-])CCN(CC(=O)[O-])CCN(CC(=O)[O-])CC1.[Gd+3] [Gd-DOTA] | 3.1 (1.41T) mM^−1s^−1 |  |  |
| CC(O)CN1CCN(CC(=O)[O-])CCN(CC(=O)[O-])CCN(CC(=O)[O-])CC1.[Gd+3] (stereo not shown) [Gd-HP-DO3A] | 3.2 (1. 41T) mM^−1s^−1 |  |  |

Second part, the compound after the results:

| r1 per Gd^3+ ion (1.41T) | longitudinal relaxivity r1 (field not stated) [mM⁻¹ s⁻¹] | r1 per Gd^3+ ion (1.5T) [mM⁻¹ s⁻¹] | SMILES |
| --- | --- | --- | --- |
| 3.6 (1. 41T) mM^−1s^−1 |  |  | CNC(=O)CN(CCN(CCN(CC(=O)[O-])CC(=O)NC)CC(=O)[O-])CC(=O)[O-].[Gd+3] [Gd-DTPA-BMA] |
|  | ~8 |  | [Gd+3] [Gd^3+ ion] |
| 3.4 (1.41T) mM^−1s^−1 |  | ~4 | O=C([O-])CN(CCN(CC(=O)[O-])CC(=O)[O-])CCN(CC(=O)[O-])CC(=O)[O-].[Gd+3] [MAG, Gd-DTPA] |
